# According to ChEMBL document CHEMBL1140050, “Designed glycopeptides with different beta-turn types as synthetic probes for the detection of autoantibodies as biomarkers of multiple sclerosis” (J Med Chem, 2008):
# Residues, ends and D or L forms follow the SMILES beside them. *: point of attachment. NH(β-D-Glc) = OC[C@H]1O[C@@H](N*)[C@H](O)[C@@H](O)[C@@H]1O
# Test: Binding affinity to anti-CSF114 (Glc) antibody in serum from multiple sclerosis patient by ELISA
row,IC50,SMILES
1,14.9 nM,CC(=O)N[C@@H](CCC(=O)O)C(=O)N[C@@H](CCCNC(=N)N)C(=O)N1CCC[C@H]1C(=O)N[C@@H](CC(=O)N[C@@H]1O[C@H](CO)[C@@H](O)[C@H](O)[C@H]1O)C(=O)N[C@@H](Cc1cnc[nH]1)C(=O)N[C@H](C(=O)N[C@H](C(N)=O)C(C)C)[C@@H](C)O (Ac-ERPD(NH(β-D-Glc))HTV-NH2)
2,11.8 nM,CSCC[C@H](NC(=O)[C@H](Cc1c[nH]c2ccccc12)NC(=O)CNC(=O)[C@H](Cc1ccc(O)cc1)NC(=O)[C@@H]1CCCN1C(=O)[C@H](C)NC(=O)[C@H](CC(C)C)NC(=O)[C@H](Cc1ccccc1)NC(=O)[C@@H](NC(=O)[C@@H](NC(=O)[C@H](Cc1cnc[nH]1)NC(=O)[C@H](CC(=O)N[C@@H]1O[C@H](CO)[C@@H](O)[C@H](O)[C@H]1O)NC(=O)[C@@H]1CCCN1C(=O)[C@H](CCCNC(=N)N)NC(=O)[C@H](CCC(=O)O)NC(=O)[C@@H](NC(=O)[C@H](CCCNC(=N)N)NC(=O)[C@@H]1CCCN1C(=O)[C@@H](N)[C@@H](C)O)C(C)C)[C@@H](C)O)C(C)C)C(=O)N[C@H](C(=O)N[C@@H](CCCCN)C(=O)O)C(C)C (H-TPRVERPD(NH(β-D-Glc))HTVFLAPYGWMVK-OH)
3,30.3 nM,CSCC[C@H](NC(=O)[C@H](Cc1c[nH]c2ccccc12)NC(=O)CNC(=O)[C@H](Cc1ccc(O)cc1)NC(=O)[C@@H]1CCCN1C(=O)[C@H](C)NC(=O)[C@H](CC(C)C)NC(=O)[C@H](Cc1ccccc1)NC(=O)[C@@H](NC(=O)[C@@H](NC(=O)[C@H](Cc1cnc[nH]1)NC(=O)[C@H](CC(=O)N[C@@H]1O[C@H](CO)[C@@H](O)[C@H](O)[C@H]1O)NC(=O)CNC(=O)[C@H](CCCNC(=N)N)NC(=O)[C@H](CCC(=O)O)NC(=O)[C@@H](NC(=O)[C@H](CCCNC(=N)N)NC(=O)[C@@H]1CCCN1C(=O)[C@@H](N)[C@@H](C)O)C(C)C)[C@@H](C)O)C(C)C)C(=O)N[C@H](C(=O)N[C@@H](CCCCN)C(=O)O)C(C)C (H-TPRVERGD(NH(β-D-Glc))HTVFLAPYGWMVK-OH)

row,SMILES,IC50
1,CSCC[C@H](NC(=O)[C@H](Cc1c[nH]c2ccccc12)NC(=O)CNC(=O)[C@H](Cc1ccc(O)cc1)NC(=O)[C@@H]1CCCN1C(=O)[C@H](C)NC(=O)[C@H](CC(C)C)NC(=O)[C@H](Cc1ccccc1)NC(=O)[C@@H](NC(=O)[C@H](CO)NC(=O)[C@H](Cc1cnc[nH]1)NC(=O)CNC(=O)[C@H](CC(=O)N[C@@H]1O[C@H](CO)[C@@H](O)[C@H](O)[C@H]1O)NC(=O)[C@H](CCCNC(=N)N)NC(=O)[C@H](CCC(=O)O)NC(=O)[C@@H](NC(=O)[C@H](CCCNC(=N)N)NC(=O)[C@@H]1CCCN1C(=O)[C@@H](N)[C@@H](C)O)C(C)C)C(C)C)C(=O)N[C@H](C(=O)N[C@@H](CCCCN)C(=O)O)C(C)C,137 nM
